Reference: ChEMBL document CHEMBL1155173, “Modulation of the cellular accumulation and intracellular activity of daptomycin towards phagocytized Staphylococcus aureus by the P-glycoprotein (MDR1) efflux transporter in human THP-1 macrophages and madin-darby canine kidney cells” (Antimicrob Agents Chemother, 2007)
In brackets after ≈: the same amount, converted by molar mass. Activity calls are given as the source filed them. The calls are words filed in the database; no cut-off is given here.

Legend:
Staphylococcus aureus [1] = test: Antibacterial activity against methicillin-sensitive Staphylococcus aureus ATCC 25923 phagocytized in human THP1 cells after 24 hrs in presence of 1 mg/liter daptomycin; type: functional, organism-based; conditions: THP-1
THP-1 [2] = test: Decrease in intracellular calcium concentration in human THP1 cells at 100 uM after 60 mins; type: functional; set-up: scale not given: the % may be the effect or the level left
Staphylococcus aureus [3] = test: Antibacterial activity against methicillin-sensitive Staphylococcus aureus ATCC 25923 phagocytized in MDCK cells over expressing human […] assessed as concentration resulting in no apparent bacterial growth after 24 hrs; type: functional
MDCK [4] = test: Cellular uptake in methicillin-sensitive Staphylococcus aureus ATCC 25923 phagocytized in MDCK cells over expressing human MDR1 cells assessed as apparent cellular to extracellular concentration ratio at 250 mg/liter after 24 hrs by fluorimetry in presence of 1 uM ouabain; type: ADME, cell-based, Canis lupus familiaris; conditions: dog
Staphylococcus aureus [5] = test: Antibacterial activity against methicillin-sensitive Staphylococcus aureus ATCC 25923 phagocytized in human THP1 cells after 24 hrs in presence of 0.5 uM elacridar; type: functional, organism-based; conditions: ATCC 25923, THP-1, 24 h
MDCK [6] = test: Cellular uptake in methicillin-sensitive Staphylococcus aureus ATCC 25923 phagocytized in MDCK cells over expressing human MDR1 cells assessed as apparent cellular to extracellular concentration ratio at 250 mg/liter after 24 hrs by fluorimetry in presence of 250 uM gemfibrozil; type: ADME, cell-based, Canis lupus familiaris; conditions: dog
MDCK [7] = test: Cellular uptake in methicillin-sensitive Staphylococcus aureus ATCC 25923 phagocytized in wild type MDCK cells assessed as apparent cellular to extracellular concentration ratio at 250 mg/liter after 24 hrs by fluorimetry in presence of 250 uM gemfibrozil; type: ADME, cell-based, Canis lupus familiaris; conditions: dog
THP-1 [8] = test: Cellular uptake in methicillin-sensitive Staphylococcus aureus ATCC 25923 phagocytized in human THP1 cells assessed as apparent cellular to extracellular concentration ratio at 250 mg/liter after 24 hrs by fluorimetry in presence of 100 uM verapamil; type: ADME, cell-based; conditions: thp-1, 24 h
THP-1 [9] = test: Cellular uptake in methicillin-sensitive Staphylococcus aureus ATCC 25923 phagocytized in human THP1 cells assessed as apparent cellular to extracellular concentration ratio at 250 mg/liter after 24 hrs by fluorimetry; type: ADME, cell-based; conditions: thp-1, 24 h
THP-1 [10] = test: Cellular uptake in methicillin-sensitive Staphylococcus aureus ATCC 25923 phagocytized in human THP1 cells assessed as apparent cellular to extracellular concentration ratio at 250 mg/liter after 24 hrs by fluorimetry in presence of 1 uM ouabain; type: ADME, cell-based; conditions: thp-1, 24 h
THP-1 [11] = test: Cellular uptake in methicillin-sensitive Staphylococcus aureus ATCC 25923 phagocytized in human THP1 cells assessed as apparent cellular to extracellular concentration ratio at 250 mg/liter after 24 hrs under 2-deoxyglucose-induced ATP depleted condition by fluorimetry; type: ADME, cell-based; conditions: thp-1, 24 h
MDCK [12] = test: Cellular uptake in methicillin-sensitive Staphylococcus aureus ATCC 25923 phagocytized in MDCK cells over expressing human MDR1 cells assessed as apparent cellular to extracellular concentration ratio at 250 mg/liter after 24 hrs by fluorimetry in presence of 100 uM verapamil; type: ADME, cell-based, Canis lupus familiaris; conditions: dog
Staphylococcus aureus [13] = test: Antibacterial activity against methicillin-sensitive Staphylococcus aureus ATCC 25923 phagocytized in wild type MDCK cells after 24 hrs; type: functional, organism-based; conditions: ATCC 25923, MDCK
MDCK [14] = test: Cellular uptake in methicillin-sensitive Staphylococcus aureus ATCC 25923 phagocytized in wild type MDCK cells assessed as apparent cellular to extracellular concentration ratio at 250 mg/liter after 24 hrs by fluorimetry in presence of 100 uM verapamil; type: ADME, cell-based, Canis lupus familiaris; conditions: dog
Staphylococcus aureus [15] = test: Antibacterial activity against methicillin-sensitive Staphylococcus aureus ATCC 25923 phagocytized in MDCK cells over expressing human […] assessed as decrease in CFU at 1 mg/liter after 24 hrs; type: functional
Staphylococcus aureus [16] = test: Antibacterial activity against methicillin-sensitive Staphylococcus aureus ATCC 25923 phagocytized in MDCK cells over expressing human […] at 1 mg/liter after 24 hrs; type: functional, organism-based; conditions: ATCC 25923, MDCK
Staphylococcus aureus [17] = test: Antibacterial activity against methicillin-sensitive Staphylococcus aureus ATCC 25923 phagocytized in human THP1 cells after 24 hrs in presence of 100 uM verapamil; type: functional, organism-based; conditions: ATCC 25923, THP-1, 24 h
Staphylococcus aureus [18] = test: Antibacterial activity against methicillin-sensitive Staphylococcus aureus ATCC 25923 phagocytized in human THP1 cells assessed as decrease in CFU at 1 mg/liter after 24 hrs in presence of 100 uM verapamil; type: functional, THP-1
Staphylococcus aureus [19] = test: Antibacterial activity against methicillin-sensitive Staphylococcus aureus ATCC 25923 phagocytized in human THP1 cells assessed as concentration resulting in no apparent bacterial growth after 24 hrs; type: functional, THP-1
Staphylococcus aureus [20] = test: Antibacterial activity against methicillin-sensitive Staphylococcus aureus ATCC 25923 phagocytized in MDCK cells over expressing human […] assessed as concentration resulting in no apparent bacterial growth after 24 hrs in presence of 100 uM verapamil; type: functional
Staphylococcus aureus [21] = test: Antibacterial activity against methicillin-sensitive Staphylococcus aureus ATCC 25923 phagocytized in wild type MDCK cells assessed as decrease in CFU at 1 mg/liter after 24 hrs; type: functional
MDCK [22] = test: Cellular uptake in methicillin-sensitive Staphylococcus aureus ATCC 25923 phagocytized in wild type MDCK cells assessed as apparent cellular to extracellular concentration ratio at 250 mg/liter after 24 hrs by fluorimetry in presence of 1 uM ouabain; type: ADME, cell-based, Canis lupus familiaris; conditions: dog
Staphylococcus aureus [23] = test: Antibacterial activity against methicillin-sensitive Staphylococcus aureus ATCC 25923 phagocytized in human THP1 cells after 24 hrs; type: functional, organism-based; conditions: ATCC 25923, THP-1, 24 h
Staphylococcus aureus [24] = test: Antibacterial activity against methicillin-sensitive Staphylococcus aureus ATCC 25923 phagocytized in wild type MDCK cells after 24 hrs in presence of 100 uM verapamil; type: functional, organism-based; conditions: ATCC 25923, MDCK
Staphylococcus aureus [25] = test: Antibacterial activity against methicillin-sensitive Staphylococcus aureus ATCC 25923 phagocytized in human THP1 cells assessed as concentration resulting in no apparent bacterial growth after 24 hrs in presence of 0.5 uM elacridar; type: functional, THP-1
Staphylococcus aureus [26] = test: Antibacterial activity against methicillin-sensitive Staphylococcus aureus ATCC 25923 phagocytized in human THP1 cells assessed as concentration resulting in no apparent bacterial growth after 24 hrs in presence of 100 uM verapamil; type: functional, THP-1
Staphylococcus aureus [27] = test: Antibacterial activity against methicillin-sensitive Staphylococcus aureus ATCC 25923 phagocytized in human THP1 cells assessed as decrease in CFU at 1 mg/liter after 24 hrs in presence of 0.5 uM elacridar; type: functional, THP-1
Staphylococcus aureus [28] = test: Antibacterial activity against methicillin-sensitive Staphylococcus aureus ATCC 25923 phagocytized in wild type MDCK cells assessed as concentration resulting in no apparent bacterial growth after 24 hrs in presence of 100 uM verapamil; type: functional
Staphylococcus aureus [29] = test: Antibacterial activity against methicillin-sensitive Staphylococcus aureus ATCC 25923 phagocytized in MDCK cells over expressing human […] after 24 hrs in presence of 100 uM verapamil; type: functional, organism-based; conditions: ATCC 25923, MDCK
Staphylococcus aureus [30] = test: Antibacterial activity against methicillin-sensitive Staphylococcus aureus ATCC 25923 phagocytized in wild type MDCK cells assessed as concentration resulting in no apparent bacterial growth after 24 hrs; type: functional
THP-1 [31] = test: Cellular uptake in methicillin-sensitive Staphylococcus aureus ATCC 25923 phagocytized in human THP1 cells assessed as apparent cellular to extracellular concentration ratio at 250 mg/liter after 24 hrs by fluorimetry in presence of 250 uM gemfibrozil; type: ADME, cell-based; conditions: thp-1, 24 h
Staphylococcus aureus [32] = test: Antibacterial activity against methicillin-sensitive Staphylococcus aureus ATCC 25923 phagocytized in wild type MDCK cells assessed as decrease in CFU at 1 mg/liter after 24 hrs in presence of 100 uM verapamil; type: functional
Staphylococcus aureus [33] = test: Antibacterial activity against methicillin-sensitive Staphylococcus aureus ATCC 25923 phagocytized in MDCK cells over expressing human […] assessed as decrease in CFU at 1 mg/liter after 24 hrs in presence of 100 uM verapamil; type: functional
MDCK [34] = test: Cellular uptake in methicillin-sensitive Staphylococcus aureus ATCC 25923 phagocytized in wild type MDCK cells assessed as apparent cellular to extracellular concentration ratio at 250 mg/liter after 24 hrs by fluorimetry; type: ADME, cell-based, Canis lupus familiaris; conditions: dog
MDCK [35] = test: Cellular uptake in methicillin-sensitive Staphylococcus aureus ATCC 25923 phagocytized in MDCK cells over expressing human MDR1 assessed as apparent cellular to extracellular concentration ratio at 250 mg/liter after 24 hrs by fluorimetry; type: ADME, cell-based, Canis lupus familiaris; conditions: dog
Staphylococcus aureus [36] = test: Antibacterial activity against methicillin-sensitive Staphylococcus aureus ATCC 25923 phagocytized in human THP1 cells assessed as decrease in CFU at 1 mg/liter after 24 hrs; type: functional, THP-1
THP-1 [37] = test: Cellular uptake in methicillin-sensitive Staphylococcus aureus ATCC 25923 phagocytized in human mdr1 siRNAs- induced MDR1 deficient human THP1 cells assessed as increase accumulation at 250 mg/liter after 24 hrs by […]; type: ADME, cell-based; conditions: thp-1, 24 h
THP-1 [38] = test: Decrease in intracellular calcium concentration in human THP1 cells at 250 uM after 60 mins; type: functional, cell-based
THP-1 [39] = test: Decrease in intracellular calcium concentration in human THP1 cells at 50 uM after 60 mins; type: functional; set-up: scale not given: the % may be the effect or the level left

COc1cc2c(cc1OC)CN(CCc1ccc(NC(=O)c3cccc4c(=O)c5cccc(OC)c5[nH]c34)cc1)CC2
Activity (Staphylococcus aureus [1]): Dose-dependent effect

COc1ccc(CCN(C)CCCC(C#N)(c2ccc(OC)c(OC)c2)C(C)C)cc1OC (stereo unspecified) [VERAPAMIL]
Activity (THP-1 [2]): 25%
Activity (Staphylococcus aureus [1]): Dose-dependent effect

CCCCCCCCCC(=O)N[C@@H](Cc1c[nH]c2ccccc12)C(=O)N[C@H](CC(N)=O)C(=O)N[C@@H](CC(=O)O)C(=O)N[C@@H]1C(=O)NCC(=O)N[C@@H](CCCN)C(=O)N[C@@H](CC(=O)O)C(=O)N[C@H](C)C(=O)N[C@@H](CC(=O)O)C(=O)NCC(=O)N[C@H](CO)C(=O)N[C@@H]([C@H](C)CC(=O)O)C(=O)N[C@@H](CC(=O)c2ccccc2N)C(=O)O[C@@H]1C
Activity (Staphylococcus aureus [3]): 2.1 mg/L
Ratio (MDCK [4]): 0.03
EC50 (Staphylococcus aureus [5]): 0.27 µg/mL
Ratio (MDCK [6]): 0.07
Ratio (MDCK [7]): 0.18
Ratio (THP-1 [8]): 0.75
Ratio (THP-1 [9]): 0.21
Ratio (THP-1 [10]): 0.12
Ratio (THP-1 [11]): 0.82
Ratio (MDCK [12]): 0.3
EC50 (Staphylococcus aureus [13]): 0.62 µg/mL (≈ 0.383 µM)
Ratio (MDCK [14]): 0.83
log10cfu (Staphylococcus aureus [15]): -1.77
EC50 (Staphylococcus aureus [16]): 2.67 µg/mL (≈ 1.65 µM)
EC50 (Staphylococcus aureus [17]): 0.31 µg/mL
log10cfu (Staphylococcus aureus [18]): -1.82
Activity (Staphylococcus aureus [19]): 1.3 mg/L
Activity (Staphylococcus aureus [20]): 0.6 mg/L
log10cfu (Staphylococcus aureus [21]): -1.7
Ratio (MDCK [22]): 0.04
EC50 (Staphylococcus aureus [23]): 1.14 µg/mL (≈ 0.703 µM)
EC50 (Staphylococcus aureus [24]): 0.18 µg/mL
Activity (Staphylococcus aureus [25]): 0.4 mg/L
Activity (Staphylococcus aureus [26]): 0.4 mg/L
log10cfu (Staphylococcus aureus [27]): -1.67
Activity (Staphylococcus aureus [28]): 0.2 mg/L
EC50 (Staphylococcus aureus [29]): 0.7 µg/mL
Activity (Staphylococcus aureus [30]): 0.6 mg/L
Ratio (THP-1 [31]): 0.18
log10cfu (Staphylococcus aureus [32]): -2.01
log10cfu (Staphylococcus aureus [33]): -1.78
Ratio (MDCK [34]): 0.23
Ratio (MDCK [35]): 0.08
Activity (Staphylococcus aureus [1]): Dose-dependent effect
log10cfu (Staphylococcus aureus [36]): -1.6

C[C@@H]1O[C@@H](O[C@H]2C[C@@H](O)[C@]3(CO)[C@H]4[C@H](O)C[C@]5(C)[C@@H](C6=CC(=O)OC6)CC[C@]5(O)[C@@H]4CC[C@]3(O)C2)[C@H](O)[C@H](O)[C@H]1O [OUABAIN]
Activity (THP-1 [37]): Active

Cc1ccc(C)c(OCCCC(C)(C)C(=O)O)c1
Activity (THP-1 [38]): inactive

C[C@H](CCC(=O)[O-])C[C@H](C)C[C@H](C)C(=O)/C=C(\[O-])[C@H](C)C[C@H](C)C/C=C/[C@@H](C)[C@@H](O)[C@@H](C)[C@@H](O)C[C@@H]1CC[C@@](C)([C@H]2CC[C@@](C)([C@@H](C)O)O2)O1.[Ca+2] [IONOMYCIN CALCIUM]
Activity (THP-1 [39]): 75%
